From the NIST ThermoML archive (doi:10.1016/j.jct.2012.06.012)

Experiment: xn = mol fraction of the nth substance listed
Conditions: Liquid, Vibrating tube method

CCCCCCCCCC [decane] + CCO
Conditions | mass density [kg/m3]
313.07 K, 1000 kPa, x2 = 0.9014 | 753.75
313.07 K, 2000 kPa, x2 = 0.9014 | 754.71
313.07 K, 3000 kPa, x2 = 0.9014 | 755.67
313.07 K, 4000 kPa, x2 = 0.9014 | 756.61
313.07 K, 5000 kPa, x2 = 0.9014 | 757.53
313.07 K, 6000 kPa, x2 = 0.9014 | 758.44
313.07 K, 7000 kPa, x2 = 0.9014 | 759.33
313.07 K, 8000 kPa, x2 = 0.9014 | 760.24
313.07 K, 9000 kPa, x2 = 0.9014 | 761.14
313.07 K, 10000 kPa, x2 = 0.9014 | 762.04
313.07 K, 11000 kPa, x2 = 0.9014 | 762.94
313.07 K, 12000 kPa, x2 = 0.9014 | 763.84
313.07 K, 13000 kPa, x2 = 0.9014 | 764.72
313.07 K, 14000 kPa, x2 = 0.9014 | 765.58
313.07 K, 15000 kPa, x2 = 0.9014 | 766.45
313.07 K, 16000 kPa, x2 = 0.9014 | 767.29
313.07 K, 17000 kPa, x2 = 0.9014 | 768.13
313.07 K, 18000 kPa, x2 = 0.9014 | 768.94
313.07 K, 19000 kPa, x2 = 0.9014 | 769.74
313.07 K, 20000 kPa, x2 = 0.9014 | 770.52
313.08 K, 1000 kPa, x2 = 0.1011 | 715.15
313.08 K, 1000 kPa, x2 = 0.4963 | 724.28
313.08 K, 1000 kPa, x2 = 0.7526 | 738.33
313.08 K, 2000 kPa, x2 = 0.1011 | 716.05
313.08 K, 2000 kPa, x2 = 0.4963 | 725.2
313.08 K, 2000 kPa, x2 = 0.7526 | 739.26
313.08 K, 3000 kPa, x2 = 0.1011 | 716.93
313.08 K, 3000 kPa, x2 = 0.4963 | 726.11
313.08 K, 3000 kPa, x2 = 0.7526 | 740.19
313.08 K, 4000 kPa, x2 = 0.1011 | 717.8
313.08 K, 4000 kPa, x2 = 0.4963 | 727
313.08 K, 4000 kPa, x2 = 0.7526 | 741.1
313.08 K, 5000 kPa, x2 = 0.1011 | 718.66
313.08 K, 5000 kPa, x2 = 0.4963 | 727.87
313.08 K, 5000 kPa, x2 = 0.7526 | 741.99
313.08 K, 6000 kPa, x2 = 0.1011 | 719.51
313.08 K, 6000 kPa, x2 = 0.4963 | 728.73
313.08 K, 6000 kPa, x2 = 0.7526 | 742.87
313.08 K, 7000 kPa, x2 = 0.1011 | 720.34
313.08 K, 7000 kPa, x2 = 0.4963 | 729.58
313.08 K, 7000 kPa, x2 = 0.7526 | 743.75
313.08 K, 8000 kPa, x2 = 0.1011 | 721.16
313.08 K, 8000 kPa, x2 = 0.4963 | 730.44
313.08 K, 8000 kPa, x2 = 0.7526 | 744.64
313.08 K, 9000 kPa, x2 = 0.1011 | 721.98
313.08 K, 9000 kPa, x2 = 0.4963 | 731.3
313.08 K, 9000 kPa, x2 = 0.7526 | 745.53
313.08 K, 10000 kPa, x2 = 0.1011 | 722.8
313.08 K, 10000 kPa, x2 = 0.4963 | 732.16
313.08 K, 10000 kPa, x2 = 0.7526 | 746.41
313.08 K, 11000 kPa, x2 = 0.1011 | 723.63
313.08 K, 11000 kPa, x2 = 0.4963 | 733
313.08 K, 11000 kPa, x2 = 0.7526 | 747.29
313.08 K, 12000 kPa, x2 = 0.1011 | 724.45
313.08 K, 12000 kPa, x2 = 0.4963 | 733.86
313.08 K, 12000 kPa, x2 = 0.7526 | 748.17
313.08 K, 13000 kPa, x2 = 0.1011 | 725.26
313.08 K, 13000 kPa, x2 = 0.4963 | 734.7
313.08 K, 13000 kPa, x2 = 0.7526 | 749.03
313.08 K, 14000 kPa, x2 = 0.1011 | 726.06
313.08 K, 14000 kPa, x2 = 0.4963 | 735.54
313.08 K, 14000 kPa, x2 = 0.7526 | 749.89
313.08 K, 15000 kPa, x2 = 0.1011 | 726.85
313.08 K, 15000 kPa, x2 = 0.4963 | 736.35
313.08 K, 15000 kPa, x2 = 0.7526 | 750.73
313.08 K, 16000 kPa, x2 = 0.1011 | 727.63
313.08 K, 16000 kPa, x2 = 0.4963 | 737.16
313.08 K, 16000 kPa, x2 = 0.7526 | 751.56
313.08 K, 17000 kPa, x2 = 0.1011 | 728.39
313.08 K, 17000 kPa, x2 = 0.4963 | 737.95
313.08 K, 17000 kPa, x2 = 0.7526 | 752.38
313.08 K, 18000 kPa, x2 = 0.1011 | 729.13
313.08 K, 18000 kPa, x2 = 0.4963 | 738.72
313.08 K, 18000 kPa, x2 = 0.7526 | 753.17
313.08 K, 19000 kPa, x2 = 0.1011 | 729.85
313.08 K, 19000 kPa, x2 = 0.4963 | 739.47
313.08 K, 19000 kPa, x2 = 0.7526 | 753.95
313.08 K, 20000 kPa, x2 = 0.1011 | 730.55
313.08 K, 20000 kPa, x2 = 0.4963 | 740.21
313.08 K, 20000 kPa, x2 = 0.7526 | 754.7
313.09 K, 1000 kPa, x2 = 0.0937 | 715.17
313.09 K, 2000 kPa, x2 = 0.0937 | 716.07
313.09 K, 3000 kPa, x2 = 0.0937 | 716.95
313.09 K, 4000 kPa, x2 = 0.0937 | 717.82
313.09 K, 5000 kPa, x2 = 0.0937 | 718.68
313.09 K, 6000 kPa, x2 = 0.0937 | 719.53
313.09 K, 7000 kPa, x2 = 0.0937 | 720.36
313.09 K, 8000 kPa, x2 = 0.0937 | 721.18
313.09 K, 9000 kPa, x2 = 0.0937 | 721.99
313.09 K, 10000 kPa, x2 = 0.0937 | 722.79
